Experimental data reported in ChEMBL document CHEMBL1201862, “PubChem BioAssay data set” (2004).
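1) Cells in 96-well plates. 2) Compound, 48 h, 5 concentrations. 3) Linear interpolation between surrounding doses. 4) Unreached endpoint = highest concentration. GI50 is the concentration that inhibits growth by half.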 The source made the active and inactive calls. No stated cut-off is given here; in the data, active = GI50 up to about 1.1 µM and inactive = higher.

What was measured:
Test in all cases: inhibition of tumour cell growth, NCI panel, 48 h
[1] = tested on: 786-0
[2] = tested on: A498
[3] = tested on: A549
[4] = tested on: ACHN
[5] = tested on: BT-549
[6] = tested on: CAKI-1
[7] = tested on: CCRF-CEM
[8] = tested on: COLO 205
[9] = tested on: DU-145
[10] = tested on: EKVX
[11] = tested on: HCC 2998
[12] = tested on: HCT-116
[13] = tested on: HCT-15
[14] = tested on: HL-60
[15] = tested on: HOP-62
[16] = tested on: HOP-92
[17] = tested on: HT-29
[18] = tested on: Hs-578T
[19] = tested on: IGROV-1
[20] = tested on: K562
[21] = tested on: KM12
[22] = tested on: LOX IMVI
[23] = tested on: M14
[24] = tested on: MCF7
[25] = tested on: MDA-MB-231
[26] = tested on: MDA-MB-435
[27] = tested on: MDA-N
[28] = tested on: MOLT-4
[29] = tested on: Malme-3M
[30] = tested on: NCI-H226
[31] = tested on: NCI-H23
[32] = tested on: NCI-H460
[33] = tested on: NCI-H522
[34] = tested on: NCI/ADR-RES
[35] = tested on: OVCAR-3
[36] = tested on: OVCAR-4
[37] = tested on: OVCAR-5
[38] = tested on: OVCAR-8
[39] = tested on: PC-3
[40] = tested on: RPMI-8226
[41] = tested on: SF-268
[42] = tested on: SF-295
[43] = tested on: SF-539
[44] = tested on: SK-MEL-28
[45] = tested on: SK-MEL-2
[46] = tested on: SK-MEL-5
[47] = tested on: SK-OV-3
[48] = tested on: SN12C
[49] = tested on: SNB-19
[50] = tested on: SNB-75
[51] = tested on: SR
[52] = tested on: SW-620
[53] = tested on: T47D
[54] = tested on: TK-10
[55] = tested on: U-251
[56] = tested on: UACC-257
[57] = tested on: UACC-62
[58] = tested on: UO-31
[59] = tested on: RXF 393

C=C1CC(Cn2cc(Br)c(=O)[nH]c2=O)(c2ccc(Br)cc2)OC1=O (centres undefined)
GI50 [1]: 1.63 µM (inactive)
GI50 [2]: 1.22 µM (inactive)
GI50 [3]: 14.8 µM (inactive)
GI50 [4]: 3.66 µM (inactive)
GI50 [5]: 2.37 µM (inactive)
GI50 [6]: 2.38 µM (inactive)
GI50 [7]: 0.614 µM (active)
GI50 [8]: 1.53 µM (inactive)
GI50 [9]: 5.65 µM (inactive)
GI50 [10]: 17.9 µM (inactive)
GI50 [11]: 3.48 µM (inactive)
GI50 [12]: 1.36 µM (inactive)
GI50 [13]: 1.83 µM
GI50 [14]: 0.621 µM (active)
GI50 [15]: 14.5 µM (inactive)
GI50 [16]: 1.33 µM (inactive)
GI50 [17]: 2.3 µM (inactive)
GI50 [18]: 5.98 µM (inactive)
GI50 [19]: 1.89 µM (inactive)
GI50 [20]: 0.644 µM (active)
GI50 [21]: 4.02 µM (inactive)
GI50 [22]: 1.58 µM (inactive)
GI50 [23]: 1.59 µM (inactive)
GI50 [24]: 2.61 µM (inactive)
GI50 [25]: 4.47 µM (inactive)
GI50 [26]: 2.88 µM (inactive)
GI50 [27]: 2.37 µM (inactive)
GI50 [28]: 1.79 µM (inactive)
GI50 [29]: 1.87 µM (inactive)
GI50 [30]: 13.4 µM (inactive)
GI50 [31]: 3.81 µM (inactive)
GI50 [32]: 14.1 µM (inactive)
GI50 [33]: 1.6 µM (inactive)
GI50 [34]: 2.59 µM (inactive)
GI50 [35]: 3.34 µM (inactive)
GI50 [36]: 1.85 µM (inactive)
GI50 [37]: 6.38 µM (inactive)
GI50 [38]: 15.3 µM (inactive)
GI50 [39]: 3.56 µM (inactive)
GI50 [40]: 0.331 µM (active)
GI50 [41]: 13.6 µM (inactive)
GI50 [42]: 12.1 µM (inactive)
GI50 [43]: 6.44 µM (inactive)
GI50 [44]: 7.19 µM (inactive)
GI50 [45]: 1.72 µM (inactive)
GI50 [46]: 3.01 µM (inactive)
GI50 [47]: 12.2 µM (inactive)
GI50 [48]: 6.81 µM (inactive)
GI50 [49]: 15.8 µM (inactive)
GI50 [50]: 13.2 µM (inactive)
GI50 [51]: 1.52 µM (inactive)
GI50 [52]: 1.49 µM (inactive)
GI50 [53]: 2.03 µM (inactive)
GI50 [54]: 7.23 µM (inactive)
GI50 [55]: 13.3 µM (inactive)
GI50 [56]: 1.82 µM (inactive)
GI50 [57]: 2.4 µM (inactive)
GI50 [58]: 14.1 µM (inactive)

CCOC(=O)C1(C#N)C(=O)c2cc[n+](CC[n+]3ccc4c(c3)C(=O)C(C#N)(C(=O)OCC)C4=O)cc2C1=O (centres undefined)
GI50 [1]: > 100 µM (inactive)
GI50 [2]: > 100 µM (inactive)
GI50 [3]: > 100 µM (inactive)
GI50 [4]: > 100 µM (inactive)
GI50 [5]: > 100 µM (inactive)
GI50 [6]: > 100 µM (inactive)
GI50 [7]: > 100 µM (inactive)
GI50 [8]: > 10 µM (inactive)
GI50 [9]: > 100 µM (inactive)
GI50 [10]: > 100 µM (inactive)
GI50 [11]: > 100 µM (inactive)
GI50 [12]: > 100 µM (inactive)
GI50 [13]: > 100 µM
GI50 [14]: 83.4 µM (inactive)
GI50 [16]: > 100 µM (inactive)
GI50 [17]: > 100 µM (inactive)
GI50 [18]: > 100 µM (inactive)
GI50 [19]: > 100 µM (inactive)
GI50 [20]: 86.1 µM (inactive)
GI50 [21]: > 100 µM (inactive)
GI50 [22]: 74.1 µM (inactive)
GI50 [23]: > 100 µM (inactive)
GI50 [24]: > 100 µM (inactive)
GI50 [25]: 60.5 µM (inactive)
GI50 [26]: > 100 µM (inactive)
GI50 [27]: 64.1 µM (inactive)
GI50 [28]: > 100 µM (inactive)
GI50 [29]: 60.4 µM (inactive)
GI50 [30]: > 100 µM (inactive)
GI50 [31]: > 100 µM (inactive)
GI50 [32]: > 100 µM (inactive)
GI50 [33]: > 100 µM (inactive)
GI50 [34]: > 100 µM (inactive)
GI50 [35]: 25.4 µM (inactive)
GI50 [36]: > 100 µM (inactive)
GI50 [37]: > 100 µM (inactive)
GI50 [38]: > 100 µM (inactive)
GI50 [39]: > 100 µM (inactive)
GI50 [40]: > 100 µM (inactive)
GI50 [59]: > 100 µM (inactive)
GI50 [41]: 96.8 µM (inactive)
GI50 [42]: > 100 µM (inactive)
GI50 [43]: > 100 µM (inactive)
GI50 [44]: > 100 µM (inactive)
GI50 [45]: 36.1 µM (inactive)
GI50 [46]: 18.4 µM (inactive)
GI50 [47]: > 100 µM (inactive)
GI50 [48]: > 100 µM (inactive)
GI50 [49]: > 100 µM (inactive)
GI50 [50]: > 100 µM (inactive)
GI50 [52]: > 100 µM (inactive)
GI50 [53]: 53.3 µM (inactive)
GI50 [55]: > 100 µM (inactive)
GI50 [56]: > 100 µM (inactive)
GI50 [57]: > 100 µM (inactive)
GI50 [58]: > 100 µM (inactive)
